Laboratory results from ChEMBL document CHEMBL1137006, “Optimization of the central linker of dicationic bis-benzimidazole anti-MRSA and anti-VRE agents” (2009).
Values after ≈ are worked out from the molar mass of the structure shown.

Key:
Format in all cases: functional
Staphylococcus aureus [1] = experiment: Antibacterial activity against multi-drug resistant Staphylococcus aureus BAA-39 by NCCLS method
Bacillus cereus = experiment: Antibacterial activity against Bacillus cereus ATCC 11778 by NCCLS method
Bacteroides fragilis = experiment: Antibacterial activity against Bacteroides fragilis ATCC 23745 by NCCLS method
Staphylococcus aureus [2] = experiment: Antibacterial activity against Staphylococcus aureus ATCC 29213 by NCCLS method
Bacillus subtilis = experiment: Antibacterial activity against Bacillus subtilis ATCC 23857 by NCCLS method
Streptococcus pneumoniae = experiment: Antibacterial activity against Streptococcus pneumoniae ATCC 6301 by NCCLS method
Enterococcus faecium = experiment: Antibacterial activity against vancomycin-resistant Enterococcus faecium ATCC 700221 by NCCLS method
Enterococcus faecalis = experiment: Antibacterial activity against vancomycin-resistant Enterococcus faecalis ATCC 51575 by NCCLS method
[3] = tested on: Staphylococcus epidermidis; experiment: Antibacterial activity against Staphylococcus epidermidis ATCC 12228 by NCCLS method
Staphylococcus aureus [4] = experiment: Antibacterial activity against methicillin-resistan Staphylococcus aureus ATCC 33591 by NCCLS method
[5] = tested on: Staphylococcus epidermidis; experiment: Antibacterial activity against methicillin-resistan Staphylococcus epidermidis ATCC 51625 by NCCLS method
Clostridium perfringens = experiment: Antibacterial activity against Clostridium perfringens ATCC 10388 by NCCLS method

Structure (SMILES) | MIC (Staphylococcus aureus [1]) [µg/mL] | MIC (Bacillus cereus) [µg/mL] | MIC (Bacteroides fragilis) [µg/mL] | MIC (Staphylococcus aureus [2]) [µg/mL] | MIC (Bacillus subtilis) [µg/mL] | MIC (Streptococcus pneumoniae) [µg/mL] | MIC (Enterococcus faecium) [µg/mL] | MIC (Enterococcus faecalis) [µg/mL] | MIC [3] [µg/mL] | MIC (Staphylococcus aureus [4]) [µg/mL] | MIC [5] [µg/mL] | MIC (Clostridium perfringens) [µg/mL]
CC(C)NC(=N)c1ccc2[nH]c(-c3ccc([C@@H]4C[C@H]4c4ccc(-c5nc6cc(C(=N)NC(C)C)ccc6[nH]5)cc4)cc3)nc2c1 | 0.5 (≈ 0.841 µM) | 0.12 (≈ 0.202 µM) | 0.5 (≈ 0.841 µM) | 1 (≈ 1.68 µM) | 0.12 (≈ 0.202 µM) | ≤ 0.06 | 0.12 (≈ 0.202 µM) | 0.5 (≈ 0.841 µM) | ≤ 0.06 | 0.25 (≈ 0.42 µM) | 0.12 (≈ 0.202 µM) | 0.25 (≈ 0.42 µM)
CC(C)NC(=N)c1ccc2[nH]c(-c3ccc(/C=C/c4ccc(-c5nc6cc(C(=N)NC(C)C)ccc6[nH]5)cc4)cc3)nc2c1 | 1 (≈ 1.72 µM) | 0.25 (≈ 0.43 µM) | 0.5 (≈ 0.861 µM) | 1 (≈ 1.72 µM) | 0.25 (≈ 0.43 µM) | 0.25 (≈ 0.43 µM) | 0.25 (≈ 0.43 µM) | 0.5 (≈ 0.861 µM) | 0.12 (≈ 0.207 µM) | 0.5 (≈ 0.861 µM) | 0.25 (≈ 0.43 µM) | 0.5 (≈ 0.861 µM)
CC(C)NC(=N)c1ccc2[nH]c(-c3ccc(Oc4ccc(-c5nc6cc(C(=N)NC(C)C)ccc6[nH]5)cc4)cc3)nc2c1 | 0.5 (≈ 0.876 µM) | < 0.06 | 2 (≈ 3.5 µM) | 0.25 (≈ 0.438 µM) | < 0.06 | < 0.06 | < 0.06 | 0.12 (≈ 0.21 µM) | < 0.06 | 0.12 (≈ 0.21 µM) | < 0.06 | 0.5 (≈ 0.876 µM)
CC(C)NC(=N)c1ccc2[nH]c(-c3ccc(NS(=O)(=O)c4ccc(-c5nc6cc(C(=N)NC(C)C)ccc6[nH]5)cc4)cc3)nc2c1 | 16 (≈ 25.2 µM) | 2 (≈ 3.16 µM) | 2 (≈ 3.16 µM) | > 32 | 2 (≈ 3.16 µM) | 1 (≈ 1.58 µM) | 4 (≈ 6.31 µM) | 2 (≈ 3.16 µM) | 2 (≈ 3.16 µM) | 16 (≈ 25.2 µM) | 4 (≈ 6.31 µM) | 4 (≈ 6.31 µM)
O=C(O)c1cn(C2CC2)c2cc(N3CCNCC3)c(F)cc2c1=O [CIPROFLOXACIN] | 8 (≈ 24.1 µM) | ≤ 0.12 | 0.5 (≈ 1.51 µM) | 0.5 (≈ 1.51 µM) | ≤ 0.12 | – | > 32 | 0.5 (≈ 1.51 µM) | ≤ 0.12 | ≤ 0.12 | ≤ 0.12 | –
CC(C)NC(=N)c1ccc2[nH]c(-c3ccc4c(c3)Cc3ccc(-c5nc6cc(C(=N)NC(C)C)ccc6[nH]5)cc3S4)nc2c1 | 8 (≈ 13.4 µM) | 1 (≈ 1.67 µM) | > 32 | 16 (≈ 26.7 µM) | 1 (≈ 1.67 µM) | 0.12 (≈ 0.2 µM) | 0.5 (≈ 0.835 µM) | 16 (≈ 26.7 µM) | 2 (≈ 3.34 µM) | 2 (≈ 3.34 µM) | 0.5 (≈ 0.835 µM) | 0.5 (≈ 0.835 µM)
CC(C)NC(=N)c1ccc2[nH]c(-c3ccc(N(C)c4ccc(-c5nc6cc(C(=N)NC(C)C)ccc6[nH]5)cc4)cc3)nc2c1 | 0.5 (≈ 0.857 µM) | 0.25 (≈ 0.428 µM) | > 32 | 1 (≈ 1.71 µM) | 0.12 (≈ 0.206 µM) | 0.12 (≈ 0.206 µM) | ≤ 0.06 | 0.25 (≈ 0.428 µM) | 0.12 (≈ 0.206 µM) | 0.5 (≈ 0.857 µM) | 0.12 (≈ 0.206 µM) | 1 (≈ 1.71 µM)
CC(C)NC(=N)c1ccc2[nH]c(-c3ccc(Nc4ccc(-c5nc6cc(C(=N)NC(C)C)ccc6[nH]5)cc4)cc3)nc2c1 | 0.25 (≈ 0.439 µM) | 0.12 (≈ 0.211 µM) | > 32 | 0.25 (≈ 0.439 µM) | 0.12 (≈ 0.211 µM) | 0.12 (≈ 0.211 µM) | 0.12 (≈ 0.211 µM) | 0.25 (≈ 0.439 µM) | 0.12 (≈ 0.211 µM) | 0.25 (≈ 0.439 µM) | 0.25 (≈ 0.439 µM) | 2 (≈ 3.51 µM)
CC(C)NC(=N)c1ccc2[nH]c(-c3ccc(CCc4ccc(-c5nc6cc(C(=N)NC(C)C)ccc6[nH]5)cc4)cc3)nc2c1 | 0.5 (≈ 0.858 µM) | 0.12 (≈ 0.206 µM) | 0.5 (≈ 0.858 µM) | 0.25 (≈ 0.429 µM) | 0.12 (≈ 0.206 µM) | < 0.06 | 0.12 (≈ 0.206 µM) | 0.25 (≈ 0.429 µM) | < 0.06 | 0.25 (≈ 0.429 µM) | 0.12 (≈ 0.206 µM) | 0.25 (≈ 0.429 µM)
CC(C)NC(=N)c1ccc2[nH]c(-c3ccc(-c4ccc(-c5ccc(-c6nc7cc(C(=N)NC(C)C)ccc7[nH]6)cc5)o4)cc3)nc2c1 | 32 (≈ 51.5 µM) | 2 (≈ 3.22 µM) | > 32 | > 32 | 2 (≈ 3.22 µM) | 0.12 (≈ 0.193 µM) | 2 (≈ 3.22 µM) | > 32 | 4 (≈ 6.44 µM) | 2 (≈ 3.22 µM) | 2 (≈ 3.22 µM) | 1 (≈ 1.61 µM)
CC(C)NC(=N)c1ccc2[nH]c(-c3ccc(C#Cc4ccc(-c5nc6cc(C(=N)NC(C)C)ccc6[nH]5)cc4)cc3)nc2c1 | 4 (≈ 6.91 µM) | 0.5 (≈ 0.864 µM) | > 32 | 2 (≈ 3.46 µM) | 4 (≈ 6.91 µM) | – | 0.5 (≈ 0.864 µM) | 32 (≈ 55.3 µM) | 0.12 (≈ 0.207 µM) | 2 (≈ 3.46 µM) | 0.25 (≈ 0.432 µM) | 4 (≈ 6.91 µM)
CC(C)NC(=N)c1ccc2[nH]c(-c3ccc(COc4ccc(-c5nc6cc(C(=N)NC(C)C)ccc6[nH]5)cc4)cc3)nc2c1 | 4 (≈ 6.84 µM) | 0.12 (≈ 0.205 µM) | 32 (≈ 54.7 µM) | 1 (≈ 1.71 µM) | 0.12 (≈ 0.205 µM) | ≤ 0.06 | 0.12 (≈ 0.205 µM) | 1 (≈ 1.71 µM) | ≤ 0.06 | 0.5 (≈ 0.855 µM) | 0.25 (≈ 0.428 µM) | 16 (≈ 27.4 µM)
CC(C)NC(=N)c1ccc2[nH]c(-c3ccc(Cc4ccc(-c5nc6cc(C(=N)NC(C)C)ccc6[nH]5)cc4)cc3)nc2c1 | 1 (≈ 1.76 µM) | 0.25 (≈ 0.44 µM) | 1 (≈ 1.76 µM) | 1 (≈ 1.76 µM) | 0.25 (≈ 0.44 µM) | < 0.06 | 0.12 (≈ 0.211 µM) | 0.25 (≈ 0.44 µM) | 0.12 (≈ 0.211 µM) | 0.25 (≈ 0.44 µM) | 0.25 (≈ 0.44 µM) | 1 (≈ 1.76 µM)
CC(C)NC(=N)c1ccc2[nH]c(-c3ccc(N(c4ccccc4)c4ccc(-c5nc6cc(C(=N)NC(C)C)ccc6[nH]5)cc4)cc3)nc2c1 | 0.5 (≈ 0.774 µM) | 0.12 (≈ 0.186 µM) | 4 (≈ 6.19 µM) | 1 (≈ 1.55 µM) | ≤ 0.06 | 0.12 (≈ 0.186 µM) | 0.12 (≈ 0.186 µM) | 0.5 (≈ 0.774 µM) | 0.25 (≈ 0.387 µM) | 0.5 (≈ 0.774 µM) | 0.25 (≈ 0.387 µM) | 1 (≈ 1.55 µM)
CC1(C)S[C@@H]2[C@H](NC(=O)Cc3ccccc3)C(=O)N2[C@H]1C(=O)O [PENICILLIN G] | > 32 | > 4 | 4 (≈ 12 µM) | 1 (≈ 2.99 µM) | < 0.06 | < 0.06 | > 32 | 4 (≈ 12 µM) | 32 (≈ 95.7 µM) | > 32 | 32 (≈ 95.7 µM) | ≤ 0.12
CC(C)NC(=N)c1ccc2[nH]c(-c3ccc(Sc4ccc(-c5nc6cc(C(=N)NC(C)C)ccc6[nH]5)cc4)cc3)nc2c1 | 32 (≈ 54.5 µM) | 8 (≈ 13.6 µM) | > 32 | > 32 | 16 (≈ 27.3 µM) | > 32 | 16 (≈ 27.3 µM) | > 32 | 8 (≈ 13.6 µM) | 16 (≈ 27.3 µM) | 16 (≈ 27.3 µM) | > 32
CN[C@H](CC(C)C)C(=O)N[C@H]1C(=O)N[C@@H](CC(N)=O)C(=O)N[C@H]2C(=O)N[C@H]3C(=O)N[C@H](C(=O)N[C@H](C(=O)O)c4cc(O)cc(O)c4-c4cc3ccc4O)[C@H](O)c3ccc(c(Cl)c3)Oc3cc2cc(c3O[C@@H]2O[C@H](CO)[C@@H](O)[C@H](O)[C@H]2O[C@H]2C[C@](C)(N)[C@H](O)[C@H](C)O2)Oc2ccc(cc2Cl)[C@H]1O [VANCOMYCIN] | – | – | 4 (≈ 2.76 µM) | – | 0.12 (≈ 0.0828 µM) | 1 (≈ 0.69 µM) | > 64 | > 32 | – | – | – | 0.12 (≈ 0.0828 µM)
